Measurements as given in patent US20170202939A1, “PERSONALIZED CANCER VACCINES AND METHODS THEREFOR” (Washington University, priority 2014, published 2017).
No end group written: not given here.

Assays:
[1] = tested on: neoantigen-specific CD8+ T cells; test: immune monitoring of vaccinated patients, HLA/peptide dextramer (tetramer) assay on cultured PBMC; type: in vivo, human; conditions: for Immunogenicity: AAS-directed CD8+ T cell response in vaccinated patient; for Spontaneous Immunity: pre-vaccine (naturally-occurring) CD8+ T cell response, immune monitoring assay
Description: Immunologic monitoring (Examples 1-10). Immunologic analysis to evaluate the kinetics and magnitude of T cell response to gp100 peptides was performed using PBMCs collected weekly (prior to vaccination and until week 21. Fresh PBMCs obtained by Ficoll-Hypaque gradient centrifugation were adjusted to 2×10^6 cells/ml in Stemline media (Sigma-Aldrich) containing 5% human AB-serum, and dispersed at 1 ml/well in 24-well plates. Cultures were set up for the gp100 peptides and the CMV pp65 peptide (positive peptide control). Cultures were pulsed with 40 μg/ml peptide and 50 U/ml IL-2 fed starting at 48 hours and every other day thereafter. On day 12 (peak of response; the inventors' unpublished observation), cultures were harvested, counted, and stained for flow cytometry analysis. To assess the antigen-specific T cell frequency, cells were stained with HLAA*0201/peptide tetramers (Beckman Coulter) for 30 minutes at room temperature, followed by addition of FITC-conjugated CD4, CD14, CD19, and CD56 and allophycocyanin-conjugated CD8 (Invitrogen) for 15 minutes at 4° C. Cells were washed and resuspended in FACS buffer, and 7AAD was added 5 minutes before analysis. Control CMV pp65-specific CD8+ T cells were detected in all CMV-seropositive patients before and after immunization. A negative HLA-A*0201/HIV gag peptide tetramer control was included. 25,000 events in the CD8+ gate were collected using a hierarchical gating strategy that included FSC/SSC and excluded 7AAD+ (dead) cells and CD4+CD14+CD19+CD56+ cells. Data were acquired and analyzed using Flow-Jo software.
To examine the kinetics and magnitude of T cell immunity to AAS peptides upon vaccination, peripheral blood mononuclear cells (PBMC) were collected prior to vaccination and weekly thereafter. The CD8+ T cell response to each peptide was analyzed using a HLA-A*02:01/AAS-peptide dextramer assay after a single round of in vitro stimulation. FIG. 30A illustrates kinetics of immune responses to neoantigens. Time is recorded in weeks (0 indicates pre-vaccination). Culture conditions and staining details are described infra. Antigen-specific numbers were calculated based on dextramer percentage and total live cell yields. Immunologic analysis to evaluate the kinetic and magnitude of T cell response to AAS-encoding and gp100-derived peptides was performed using PBMC collected weekly, starting before DC vaccination (Pre-vaccine in the figures) as described (Carreno, B. M., et al., J. Clin. Invest., 123, 3383-3394, 2013). Briefly, fresh PBMC obtained by Ficoll-Paque PLUS gradient centrifugation were cultured with 40 ug/mL peptide and IL-2 (50 U/mL). On day 10 (peak of response, unpublished data, labeled “Post-Vaccine” in the figures), neoantigen specific T cell frequencies were determined by staining with HLA-A*02:01/peptide dextramers (Immudex), followed by addition of FITC-CD4, -CD14, -CD19 (Invitrogen) and ALEXA® 488-CD56 (BD Pharmigen), APC-CD8 (Invitrogen). Cells were washed, resuspended in FACS buffer containing 7AAD. Twenty five thousand events in the CD8+ gate were collected using a hierarchical gating strategy that included FSC/SSC and excluded 7AAD-positive (dead cells) and CD4/14/19/56-positive cells. PBMC/CD8+ T cells derived from an unrelated HLA-A*02:01 patient were used as negative controls for assessing specificity of HLA-A*02:01/AAS-peptide dextramers (data not shown). Data were acquired and analyzed using Flow-Jo software. […] FIG. 30B illustrates the frequency of neoantigen specific T cells in CD8+ populations isolated directly from PBMC samples and after ex-vivo expansion using autologous DC and artificial antigen presenting cells. For dominant neoantigens TMEM48 F169L, SEC24A P469L and EXOC8 Q656, results are shown for samples obtained before vaccination (Pre-vaccine) and after 3 vaccine doses (Post-vaccine). For remaining neoantigens, results obtained with post-vaccine PBMC samples are shown. […]

HLA-A*02:01 [2] = target: T1, HLA-A*02:01 (Homo sapiens, UniProt P04439, D140Y/D185E/D98H/E176V/E277Q/G131W/G231S/I119V/I121R/I166T/I218V/L300P/L318F/N151K/N90K/P208A/P217A/Q86G/Q94H/R138H/R169H/T345S); test: fluorescence polarization-based competitive peptide binding assay; conditions: fluorescence polarization-based competitive peptide-binding assay; high affinity log(IC50; nM) <3.7; read-out: Experimental Affinity log(IC50) (converted)
T1 construct: purchased Pure Protein, L.L.C

HLA-A*02:01 [3] = target: T2, HLA-A*02:01 (human); test: fluorescence polarization-based competitive peptide-binding assay
T2 construct: The form of the HLA molecule in the fluorescence polarization assay is not described; also called HLA-A2

## AVIDAYTEI
[1]
  Immunogenicity: No
  Spontaneous Immunity: No
HLA-A*02:01 [2]
  IC50: 25700 nM

## CLFPQTLAA
[1]
  Immunogenicity: No
  Spontaneous Immunity: No
HLA-A*02:01 [2]
  IC50: 3390 nM

## FVSALCMFL
[1]
  Immunogenicity: No
  Spontaneous Immunity: No

## G280-9V: HLA-A*0201-restricted gp100 melanoma antigen-derived peptide, positive control for vaccination [reference compound]
[1]; post-vaccine PBMC, dextramer assay
  T cell response upon vaccination: enhanced in patients MEL21 and MEL218 and revealed in patient MEL38
[1]; pre-vaccine PBMC samples after in vitro stimulation
  pre-existing (naturally occurring) T cell immunity: Two (MEL21 and MEL218) of the three patients had pre-existing immunity

## HLYASLSRV
HLA-A*02:01 [2]
  IC50: 1910 nM

## IIGAGPAEV
HLA-A*02:01 [2]
  IC50: 6610 nM

## IMAHCILDL
[1]
  Immunogenicity: No
  Spontaneous Immunity: No
HLA-A*02:01 [2]
  IC50: 10500 nM

## KLANPLPYT
[1]
  Immunogenicity: No
  Spontaneous Immunity: No
HLA-A*02:01 [2]
  IC50: 5370 nM

## LLSIIFFPA
[1]
  Immunogenicity: No
  Spontaneous Immunity: No
HLA-A*02:01 [2]
  IC50: 7940 nM

## LLSIVPCTV
[1]
  Immunogenicity: No
  Spontaneous Immunity: No
HLA-A*02:01 [2]
  IC50: 1230 nM

## QLDKCSAFV
[1]
  Immunogenicity: No
  Spontaneous Immunity: No
HLA-A*02:01 [2]
  IC50: 2290 nM

## QTIDNIVFL
[1]
  Immunogenicity: No
  Spontaneous Immunity: No
HLA-A*02:01 [2]
  IC50: 1550 nM

## VLLRALPVL
[1]
  Immunogenicity: No
  Spontaneous Immunity: No
HLA-A*02:01 [2]
  IC50: 1120 nM

## YISKCWDYA
[1]
  Immunogenicity: No
  Spontaneous Immunity: No
HLA-A*02:01 [2]
  IC50: 19100 nM

B1: ARFGEF1 F1637L AAS peptide QTIDNIVFL (MEL21) (peptide)
peptide: QTIDNIVFL
notes: Synthetic nonamer carrying a tumor amino acid substitution
HLA-A*02:01 [3]
  log(IC50, nM): 3.19 log(IC50, nM)

B2: SEC24A P469L AAS peptide FLYNLLTRV (MEL38) (peptide)
peptide: FLYNLLTRV
notes: as for B1
HLA-A*02:01 [3]
  log(IC50, nM): 2.68 log(IC50, nM)

B3: HSD17B7 H108Y AAS peptide YISKCWDYA (MEL38) (peptide)
peptide: YISKCWDYA
notes: as for B1
HLA-A*02:01 [3]
  log(IC50, nM): 4.28 log(IC50, nM)

## HLYASLSRV [MRPS5 P59L AAS peptide HLYASLSRV, anchor-modified at P9 (MEL218)]
HLA-A*02:01 [3]
  log(IC50, nM): 3.28 log(IC50, nM)

B4: GPX8 L27P AAS peptide LLSIVPCTV (MEL21) (peptide)
peptide: LLSIVPCTV
notes: as for B1
HLA-A*02:01 [3]
  log(IC50, nM): 3.09 log(IC50, nM)

B5: SRP9 I64M AAS peptide IMAHCILDL (MEL218) (peptide)
peptide: IMAHCILDL
notes: as for B1
HLA-A*02:01 [3]
  log(IC50, nM): 4.02 log(IC50, nM)

## IIGAGPAEV [KDM1B G394E AAS peptide IIGAGPAEV, anchor-modified at P9 (MEL21)]
HLA-A*02:01 [3]
  log(IC50, nM): 3.82 log(IC50, nM)

B6: UTRN Q1058K AAS peptide QLDKCSAFV (MEL38) (peptide)
peptide: QLDKCSAFV
notes: as for B1
HLA-A*02:01 [3]
  log(IC50, nM): 3.36 log(IC50, nM)

B7: PABPC1 R520Q AAS peptide MLGEQLFPL (MEL218) (peptide)
peptide: MLGEQLFPL
notes: as for B1
HLA-A*02:01 [3]
  log(IC50, nM): 2.35 log(IC50, nM)

B8: AKAP13 Q285K AAS peptide KLMNIQQKL (MEL38) (peptide)
peptide: KLMNIQQKL
notes: as for B1
HLA-A*02:01 [3]
  log(IC50, nM): 3.07 log(IC50, nM)

B9: PHKA2 S264F AAS peptide LLSIIFFPA (MEL21) (peptide)
peptide: LLSIIFFPA
notes: as for B1
HLA-A*02:01 [3]
  log(IC50, nM): 3.9 log(IC50, nM)

## AMFWSVPTV [TKT R438W AAS peptide AMFWSVPTV, anchor-modified at P9 (MEL21)]
HLA-A*02:01 [3]
  log(IC50, nM): 2.35 log(IC50, nM)

## IILVAVPHV [EXOC8 Q656P AAS peptide IILVAVPHV (MEL218)]
HLA-A*02:01 [3]
  log(IC50, nM): 3.06 log(IC50, nM)

## CLFPQTLAA [PRKCDBP S153F AAS peptide CLFPQTLAA (MEL38)]
HLA-A*02:01 [3]
  log(IC50, nM): 3.53 log(IC50, nM)

B10: LARP7 N515D AAS peptide AVIDAYTEI (MEL218) (peptide)
peptide: AVIDAYTEI
notes: as for B1
HLA-A*02:01 [3]
  log(IC50, nM): 4.41 log(IC50, nM)

B11: OR8B3 T190I AAS peptide QLSCISTYV (MEL38) (peptide)
peptide: QLSCISTYV
notes: as for B1
HLA-A*02:01 [3]
  log(IC50, nM): 3.1 log(IC50, nM)

B12: MRPS17 P167L AAS peptide VLLRALPVL (MEL218) (peptide)
peptide: VLLRALPVL
notes: as for B1
HLA-A*02:01 [3]
  log(IC50, nM): 3.05 log(IC50, nM)

B13: SMOX K499N AAS peptide KLANPLPYT (MEL218) (peptide)
peptide: KLANPLPYT
notes: as for B1
HLA-A*02:01 [3]
  log(IC50, nM): 3.73 log(IC50, nM)

## FVSALCMFL [ARFGEF1 R782C AAS peptide FVSALCMFL (MEL38)]
HLA-A*02:01 [3]
  log(IC50, nM): 3.18 log(IC50, nM)

B14: TMEM48 F169L AAS peptide CLNEYHLFL (MEL21) (peptide)
peptide: CLNEYHLFL
notes: as for B1
HLA-A*02:01 [3]
  log(IC50, nM): 3.09 log(IC50, nM)
